Measurements published in ChEMBL document CHEMBL1155627, “HIV-Inhibitory prenylated xanthones and flavones from Maclura tinctoria” (J Nat Prod, 2000).
In brackets after ≈: the same amount, converted by molar mass. Activity calls are given as the source filed them. No cut-off for these calls is given here.

Key:
[1] = system: Human immunodeficiency virus 1; test: Antiviral activity against HIV1; format: functional, organism-based
[2] = system: CEM-SS; test: Cytotoxicity against human CEM-SS cells; format: cell-based

Compound	EC50 [1] [µg/mL]	IC50 [2] [µg/mL]	Activity [1]
C=CC(C)(C)c1c(O)c(CC=C(C)C)c2oc3c(O)c(O)ccc3c(=O)c2c1O [MACLURAXANTHONE C]	1.3 (≈ 3.28 µM)	3.7 (≈ 9.33 µM)	–
CC(C)=CCc1c(O)c(CC=C(C)C)c2oc3c(O)cccc3c(=O)c2c1O [8-DEOXYGARTANIN]	–	4.9 (≈ 12.9 µM)	inactive
CC(C)=CCc1c(-c2ccc(O)cc2O)oc2cc3c(c(O)c2c1=O)CCC(C)(C)O3 [DIHYDROCUDRAFLAVONE B]	–	12 (≈ 28.4 µM)	inactive
CC(C)=CCc1c(O)c(CC=C(C)C)c2oc3c(O)ccc(O)c3c(=O)c2c1O [GARTANIN]	–	5.3 (≈ 13.4 µM)	inactive
C=CC(C)(C)c1c(O)c(CC=C(C)C)c2oc3cc(O)c(O)cc3c(=O)c2c1O [MACLURAXANTHONE B]	1 (≈ 2.52 µM)	2.2 (≈ 5.55 µM)	–
CC(C)=CCc1c(O)cc2oc3c(c(=O)c2c1O)C(C=C(C)C)Oc1cc(O)ccc1-3 (centres undefined) [ISOCYCLOMULBERRIN]	7.5 (≈ 17.8 µM)	17 (≈ 40.4 µM)	–
CC(C)=CCc1c(O)cc2oc(-c3ccc(O)cc3O)c(CC=C(C)C)c(=O)c2c1O [CUDRAFLAVONE C]	–	5 (≈ 11.8 µM)	inactive
